# Reference: patent publication US20040053898A1, “Combination preparation with a erbeta selective estrogen and serm or antiestorgen” (priority 2000, published 2004)
# Tests used:
# [1] = test system: human estrogen receptor α (ERα) / human estrogen receptor β (ERβ); test: binding to human estrogen receptors α and β; conditions: human ERα than human ERβ
# [2] = test system: estrogen receptor preparations of rat prostates and rat uteri; test: estrogen receptor binding, 3H-estradiol competition, rat prostate versus rat uterus cytosol; conditions: rat prostate ER versus rat uterus ER
# Procedure: The binding affinity of the new selective estrogens (ERβ-ligands) and SERMs was tested in competitive experiments with use of 3H-estradiol as a ligand in estrogen receptor preparations of rat prostates and rat uteri.
# [3] = test system: ERβ compared to ERα; conditions: in-vitro receptor binding test; cited from earlier work
SMILES,binding to human ERα relative to human ERβ (fold better) [1] [×],RBA value in rat prostate estrogen receptor relative to RBA value in rat uterus estrogen receptor (fold better) [2] [×],preference for ERβ compared to ERα [3]
C[C@]12CC[C@@H]3c4ccc(O)cc4CC[C@H]3[C@@H]1C[C@@H](O)C2=O [16α-hydroxyestrone],3,5,–
O=c1c(-c2ccc(O)cc2)coc2cc(O)cc(O)c12 [genisteine],–,–,ERβ-selectivity
